Source: publication PMC9898036, “VIP152 is a selective CDK9 inhibitor with pre-clinical in vitro and in vivo efficacy in chronic lymphocytic leukemia” (Leukemia, 2022)

How the values were obtained:
[1] = molecular target: TYK2(JH1domain-catalytic) (Homo sapiens, UniProt P29597); assay: KINOMEscan: TYK2(JH1domain-catalytic); assay type: binding; settings: 100 nM, read-out: Percent Control
EPHA2 = EPHA2 (Homo sapiens, UniProt P29317); assay: KINOMEscan: EPHA2; assay type: binding; settings: 1000 nM, read-out: Percent Control
MKK7 = MKK7 (Homo sapiens, UniProt O14733); assay: KINOMEscan: MKK7; assay type: binding; settings: 1000 nM, read-out: Percent Control
S6K1 = S6K1 (Homo sapiens, UniProt P23443); assay: KINOMEscan: S6K1; assay type: binding; settings: 100 nM, read-out: Percent Control
BRAF(V600E) = BRAF(V600E) (Homo sapiens, UniProt P15056, V600E); assay: KINOMEscan: BRAF(V600E); assay type: binding; settings: 1000 nM, read-out: Percent Control
LRRK2 = LRRK2 (Homo sapiens, UniProt Q5S007); assay: KINOMEscan: LRRK2; assay type: binding; settings: 1000 nM, read-out: Percent Control
CAMK4 = CAMK4 (Homo sapiens, UniProt Q16566); assay: KINOMEscan: CAMK4; assay type: binding; settings: 1000 nM, read-out: Percent Control
VEGFR2 = VEGFR2 (Homo sapiens, UniProt P35968); assay: KINOMEscan: VEGFR2; assay type: binding; settings: 100 nM, read-out: Percent Control
FGFR1 = FGFR1 (Homo sapiens, UniProt P11362); assay: KINOMEscan: FGFR1; assay type: binding; settings: 1000 nM, read-out: Percent Control
ALK(C1156Y) = ALK(C1156Y) (Homo sapiens, UniProt Q9UM73, C1156Y); assay: KINOMEscan: ALK(C1156Y); assay type: binding; settings: 1000 nM, read-out: Percent Control
Adrenergic α1D = Adrenergic α1D (Homo sapiens, UniProt P25100); assay: Eurofins Diversity Panel; assay type: binding; settings: hum, Conc. 10 μM
MAP3K2 = MAP3K2 (Homo sapiens, UniProt Q9Y2U5); assay: KINOMEscan: MAP3K2; assay type: binding; settings: 1000 nM, read-out: Percent Control
YES = YES (Homo sapiens, UniProt P07947); assay: KINOMEscan: YES; assay type: binding; settings: 100 nM, read-out: Percent Control
RIPK2 = RIPK2 (Homo sapiens, UniProt O43353); assay: KINOMEscan: RIPK2; assay type: binding; settings: 100 nM, read-out: Percent Control
SLK = SLK (Homo sapiens, UniProt Q9H2G2); assay: KINOMEscan: SLK; assay type: binding; settings: 100 nM, read-out: Percent Control
CSNK1G2 = CSNK1G2 (Homo sapiens, UniProt P78368); assay: KINOMEscan: CSNK1G2; assay type: binding; settings: 1000 nM, read-out: Percent Control
EGFR(L858R) = EGFR(L858R) (Homo sapiens, UniProt P00533, L858R); assay: KINOMEscan: EGFR(L858R); assay type: binding; settings: 1000 nM, read-out: Percent Control
BTK = BTK (Homo sapiens, UniProt Q06187); assay: KINOMEscan: BTK; assay type: binding; settings: 1000 nM, read-out: Percent Control
BRSK1 = BRSK1 (Homo sapiens, UniProt Q8TDC3); assay: KINOMEscan: BRSK1; assay type: binding; settings: 1000 nM, read-out: Percent Control
GSK3α = GSK3α (Homo sapiens, UniProt P49840); assay: KINOMEscan: GSK3α; assay type: binding
Protocol: The structure and synthesis of VIP152 were recently described by Lücking et al.. (Fig. 1A); however, the selectivity of the molecule in cellular systems has yet to be explored. […] We also performed this experiment at 1000 nM, where CDK9 was inhibited at 99%. […] We found a strong concordance between our data and those of Lücking when comparing the most inhibited kinases. Potential off-target effects of VIP152 were next tested in vitro at a concentration of 10 µM for off-target activity against a broad range of receptors, transporters, ion channels, and enzymes (n = 138) using the Eurofins Diversity Panel.
Kinomescan Kinase Profiling Assay
Kinomescan Assay was performed at DiscoverRX and described in Fabian, et al. 2005, Nat.
Biotechnol. In brief, kinases were produced and subsequently tagged with DNA for qPCR detection.
Streptavidin-coated magnetic beads were bound to biotinylated kinase ligands to serve as a solid support.
VIP152 was dissolved in DMSO and tested across a 10 serial threefold dilution set and compared to a test compound and a DMSO control. Kinases which were inhibited by VIP152 would not be bound to the solid-support resulting in decreased substrate for the qPCR reaction. Kinome map was produced via TreeSpot Analysis from DiscoverRX. […]
NanoBRETTM Target Engagement Assay Protocol […]
HEK293 cells were grown to 70-80% confluence appropriately prior to assay and subsequently trypsinized. Lipid:DNA complexes were prepared as follows. A 10µg/mL solution of DNA in Opti-MEM without serum consisting of the following ratios of carrier DNA and DNA encoding NanoLuc fusion were prepared.
9.0µg/mL of Transfection Carrier DNA, 1.0µg/mL of NanoLuc fusion vector DNA, and 1mL of Opti-MEM without phenol red. The solution was mixed thoroughly. Next, 30µL of FuGENE HD Transfection Reagent was added into each mL of DNA mixture to form the lipid:DNA complex and mixed by inversion 10 times followed by a 20 minute incubation at room temperature. […]

PFPK5(P.falciparum) = PFPK5(P.falciparum) (Plasmodium falciparum, UniProt P61075); assay: DiscoverX KINOMEscan kinase profiling; assay type: binding; settings: kinase PFPK5(P.falciparum) (Entrez MAL13P1.279); compound concentration 1000 nM; read-out: Percent Control
[2] = tested on: relapsed/refractory primary CLL samples; assay: Annexin V/propidium iodide flow cytometry; assay type: cell-based; settings: Homo sapiens; 8 BTKi/venetoclax relapsed/refractory samples; 24 h; read-out: IC50 (50% killing)
α2B receptor = molecular target: T1, α2B receptor (Homo sapiens, UniProt P18089); assay: Eurofins Diversity Panel: adrenergic α2B receptor; assay type: binding
T1 construct: purchased Eurofins

STK33 = STK33 (Homo sapiens, UniProt Q9BYT3); assay: KINOMEscan: STK33; assay type: binding; settings: 100 nM, read-out: Percent Control

Sequence of GSK3α (P49840 whole entry): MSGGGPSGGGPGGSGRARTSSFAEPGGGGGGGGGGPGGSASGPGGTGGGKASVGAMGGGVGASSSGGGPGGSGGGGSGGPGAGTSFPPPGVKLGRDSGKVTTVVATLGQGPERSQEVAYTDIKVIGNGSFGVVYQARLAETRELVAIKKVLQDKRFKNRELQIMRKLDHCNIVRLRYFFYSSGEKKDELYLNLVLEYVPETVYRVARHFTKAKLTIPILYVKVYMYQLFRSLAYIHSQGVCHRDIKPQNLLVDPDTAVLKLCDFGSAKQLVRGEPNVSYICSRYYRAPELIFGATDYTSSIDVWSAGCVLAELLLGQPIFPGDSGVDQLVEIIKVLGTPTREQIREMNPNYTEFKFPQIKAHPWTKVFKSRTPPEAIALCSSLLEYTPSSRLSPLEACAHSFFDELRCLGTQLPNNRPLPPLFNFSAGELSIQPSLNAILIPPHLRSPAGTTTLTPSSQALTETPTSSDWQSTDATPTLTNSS
Sequence of VEGFR2 (P35968 20-1356): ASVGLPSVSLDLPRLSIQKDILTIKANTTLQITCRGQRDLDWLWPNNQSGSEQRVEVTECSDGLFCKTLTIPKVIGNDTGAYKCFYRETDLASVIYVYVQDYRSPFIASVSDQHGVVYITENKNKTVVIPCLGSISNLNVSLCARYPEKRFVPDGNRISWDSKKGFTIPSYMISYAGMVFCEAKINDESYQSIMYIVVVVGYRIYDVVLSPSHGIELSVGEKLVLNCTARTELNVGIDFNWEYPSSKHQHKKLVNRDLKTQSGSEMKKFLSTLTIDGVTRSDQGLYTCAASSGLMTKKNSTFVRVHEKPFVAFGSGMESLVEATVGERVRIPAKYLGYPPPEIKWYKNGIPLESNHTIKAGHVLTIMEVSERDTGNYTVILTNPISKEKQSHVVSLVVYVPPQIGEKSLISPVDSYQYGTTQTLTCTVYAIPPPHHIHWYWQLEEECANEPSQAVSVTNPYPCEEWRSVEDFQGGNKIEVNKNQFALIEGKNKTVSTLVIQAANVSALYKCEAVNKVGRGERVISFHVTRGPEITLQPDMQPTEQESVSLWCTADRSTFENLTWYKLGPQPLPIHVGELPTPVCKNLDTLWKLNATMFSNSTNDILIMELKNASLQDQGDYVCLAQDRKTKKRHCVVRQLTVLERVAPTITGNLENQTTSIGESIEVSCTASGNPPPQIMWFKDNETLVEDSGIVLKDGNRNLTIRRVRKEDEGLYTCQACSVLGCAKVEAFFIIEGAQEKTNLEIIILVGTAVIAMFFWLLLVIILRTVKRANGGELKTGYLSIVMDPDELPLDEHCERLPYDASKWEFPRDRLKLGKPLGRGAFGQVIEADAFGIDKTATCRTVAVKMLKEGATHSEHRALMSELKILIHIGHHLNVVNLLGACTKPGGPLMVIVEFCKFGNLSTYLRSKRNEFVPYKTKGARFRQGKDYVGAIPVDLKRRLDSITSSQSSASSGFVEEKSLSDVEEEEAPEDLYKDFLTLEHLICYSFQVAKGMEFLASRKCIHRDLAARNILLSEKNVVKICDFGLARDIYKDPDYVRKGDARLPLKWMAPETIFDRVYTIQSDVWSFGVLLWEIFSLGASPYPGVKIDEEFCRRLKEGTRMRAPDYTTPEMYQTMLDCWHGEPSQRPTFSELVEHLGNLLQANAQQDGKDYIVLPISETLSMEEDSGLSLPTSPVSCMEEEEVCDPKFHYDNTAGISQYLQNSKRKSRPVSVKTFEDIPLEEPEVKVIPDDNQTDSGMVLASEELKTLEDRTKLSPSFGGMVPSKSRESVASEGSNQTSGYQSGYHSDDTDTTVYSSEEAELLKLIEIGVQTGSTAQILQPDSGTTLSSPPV
Sequence of BRAF(V600E) (P15056 whole entry V600E): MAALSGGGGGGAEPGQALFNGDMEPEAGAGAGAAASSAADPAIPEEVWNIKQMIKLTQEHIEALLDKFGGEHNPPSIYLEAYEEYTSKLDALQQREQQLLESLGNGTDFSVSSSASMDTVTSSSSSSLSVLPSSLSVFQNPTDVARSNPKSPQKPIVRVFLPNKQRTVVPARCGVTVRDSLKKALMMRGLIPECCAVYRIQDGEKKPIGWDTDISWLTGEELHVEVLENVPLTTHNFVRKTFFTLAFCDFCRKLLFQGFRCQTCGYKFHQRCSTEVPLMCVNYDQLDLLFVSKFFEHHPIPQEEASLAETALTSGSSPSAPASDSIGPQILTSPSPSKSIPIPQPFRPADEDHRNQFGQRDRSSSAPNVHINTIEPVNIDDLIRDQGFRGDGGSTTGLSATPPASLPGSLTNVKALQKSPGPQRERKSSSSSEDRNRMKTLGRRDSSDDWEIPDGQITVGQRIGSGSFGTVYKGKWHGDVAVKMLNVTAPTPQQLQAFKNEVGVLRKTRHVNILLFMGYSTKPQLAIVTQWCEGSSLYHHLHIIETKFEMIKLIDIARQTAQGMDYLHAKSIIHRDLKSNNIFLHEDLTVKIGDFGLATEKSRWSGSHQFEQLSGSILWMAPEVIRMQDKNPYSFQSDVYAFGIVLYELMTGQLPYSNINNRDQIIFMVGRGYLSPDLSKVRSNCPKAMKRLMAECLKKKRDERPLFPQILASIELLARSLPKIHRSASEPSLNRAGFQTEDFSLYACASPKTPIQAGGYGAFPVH
Sequence of PFPK5(P.falciparum) (P61075 whole entry): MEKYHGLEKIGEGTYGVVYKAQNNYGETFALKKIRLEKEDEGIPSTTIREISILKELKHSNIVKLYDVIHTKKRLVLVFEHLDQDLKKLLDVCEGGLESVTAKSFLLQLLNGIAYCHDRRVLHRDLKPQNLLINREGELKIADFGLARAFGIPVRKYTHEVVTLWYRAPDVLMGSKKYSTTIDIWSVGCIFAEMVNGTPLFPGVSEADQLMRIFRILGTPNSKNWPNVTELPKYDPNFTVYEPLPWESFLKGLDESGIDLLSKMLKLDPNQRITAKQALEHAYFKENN
Sequence of TYK2(JH1domain-catalytic) (P29597 875-1187 limits assumed): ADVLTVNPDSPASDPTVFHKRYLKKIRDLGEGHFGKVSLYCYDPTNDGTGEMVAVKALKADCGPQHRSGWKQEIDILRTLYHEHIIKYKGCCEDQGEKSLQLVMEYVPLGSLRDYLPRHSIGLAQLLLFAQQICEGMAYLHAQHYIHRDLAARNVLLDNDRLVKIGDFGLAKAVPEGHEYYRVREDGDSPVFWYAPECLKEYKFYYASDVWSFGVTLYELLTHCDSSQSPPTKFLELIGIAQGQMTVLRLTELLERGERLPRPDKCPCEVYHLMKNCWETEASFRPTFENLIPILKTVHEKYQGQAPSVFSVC
Sequence of BTK (Q06187 whole entry): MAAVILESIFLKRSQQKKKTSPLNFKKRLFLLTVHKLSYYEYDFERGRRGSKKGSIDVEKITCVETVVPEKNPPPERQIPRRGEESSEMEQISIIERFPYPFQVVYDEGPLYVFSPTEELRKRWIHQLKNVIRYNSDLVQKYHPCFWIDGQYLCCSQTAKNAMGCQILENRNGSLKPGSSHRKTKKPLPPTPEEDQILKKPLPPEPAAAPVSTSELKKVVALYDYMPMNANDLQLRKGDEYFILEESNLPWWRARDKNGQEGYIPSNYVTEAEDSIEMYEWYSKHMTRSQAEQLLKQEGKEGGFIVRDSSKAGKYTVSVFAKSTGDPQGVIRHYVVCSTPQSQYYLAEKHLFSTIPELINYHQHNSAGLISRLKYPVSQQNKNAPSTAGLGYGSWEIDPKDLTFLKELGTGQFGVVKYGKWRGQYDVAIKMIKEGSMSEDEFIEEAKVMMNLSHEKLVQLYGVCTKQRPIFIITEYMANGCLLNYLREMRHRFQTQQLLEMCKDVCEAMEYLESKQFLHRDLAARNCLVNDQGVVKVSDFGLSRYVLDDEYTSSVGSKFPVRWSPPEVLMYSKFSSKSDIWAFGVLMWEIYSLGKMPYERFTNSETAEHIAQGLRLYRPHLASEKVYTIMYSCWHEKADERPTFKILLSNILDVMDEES
Sequence of EPHA2 (P29317 24-976): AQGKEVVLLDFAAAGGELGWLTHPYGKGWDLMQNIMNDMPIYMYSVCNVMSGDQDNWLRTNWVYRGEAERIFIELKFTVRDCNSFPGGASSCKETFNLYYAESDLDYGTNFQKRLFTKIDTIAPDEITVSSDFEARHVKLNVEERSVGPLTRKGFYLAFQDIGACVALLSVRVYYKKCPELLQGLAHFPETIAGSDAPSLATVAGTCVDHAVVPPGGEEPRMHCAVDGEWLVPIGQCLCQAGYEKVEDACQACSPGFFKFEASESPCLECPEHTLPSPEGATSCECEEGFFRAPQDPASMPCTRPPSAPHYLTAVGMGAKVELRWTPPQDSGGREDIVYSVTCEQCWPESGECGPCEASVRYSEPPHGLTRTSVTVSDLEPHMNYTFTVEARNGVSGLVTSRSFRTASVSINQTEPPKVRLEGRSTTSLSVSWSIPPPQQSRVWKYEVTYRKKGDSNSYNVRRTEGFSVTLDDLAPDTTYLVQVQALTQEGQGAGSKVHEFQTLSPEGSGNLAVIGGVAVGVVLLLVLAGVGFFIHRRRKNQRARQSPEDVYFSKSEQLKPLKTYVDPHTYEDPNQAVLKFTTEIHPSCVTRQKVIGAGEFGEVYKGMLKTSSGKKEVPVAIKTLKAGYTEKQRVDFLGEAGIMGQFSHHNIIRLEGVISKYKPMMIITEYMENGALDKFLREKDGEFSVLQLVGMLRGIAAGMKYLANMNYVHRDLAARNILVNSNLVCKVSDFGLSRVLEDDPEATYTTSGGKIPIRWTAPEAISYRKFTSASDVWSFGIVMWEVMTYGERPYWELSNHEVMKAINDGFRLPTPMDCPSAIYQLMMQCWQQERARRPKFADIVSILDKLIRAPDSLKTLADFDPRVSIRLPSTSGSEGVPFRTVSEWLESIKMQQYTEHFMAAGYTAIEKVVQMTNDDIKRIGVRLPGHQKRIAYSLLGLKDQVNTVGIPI

## COc1cc(F)ccc1-c1cc(Nc2cc(CS(C)(=N)=O)ccn2)ncc1F (centres unmarked) [VIP152]
[1]
  remaining binding at 0.1 µM: 100%
EPHA2
  remaining binding at 1 µM: 97%
MKK7
  remaining binding at 1 µM: 100%
S6K1
  remaining binding at 0.1 µM: 96%
BRAF(V600E)
  remaining binding at 1 µM: 92%
LRRK2
  remaining binding at 1 µM: 50%
CAMK4
  remaining binding at 1 µM: 100%
VEGFR2
  remaining binding at 0.1 µM: 89%
FGFR1
  remaining binding at 1 µM: 83%
ALK(C1156Y)
  remaining binding at 1 µM: 71%
Adrenergic α1D
  inhibition at 10 µM: 19%
MAP3K2
  remaining binding at 1 µM: 57%
YES
  remaining binding at 0.1 µM: 100%
RIPK2
  remaining binding at 0.1 µM: 100%
SLK
  remaining binding at 0.1 µM: 91%
CSNK1G2
  remaining binding at 1 µM: 93%
EGFR(L858R)
  remaining binding at 1 µM: 76%
BTK
  remaining binding at 1 µM: 100%
BRSK1
  remaining binding at 1 µM: 83%
GSK3α; 100 nM, read-out: inhibition of GSK3α relative to control
  inhibition at 0.1 µM: 97.1%
GSK3α; GSK3A, 100 nM, read-out: Percent Control
  remaining binding at 0.1 µM: 2.9%
GSK3α; GSK3A, 1000 nM, read-out: Percent Control
  remaining binding at 1 µM: 4.5%
PFPK5(P.falciparum)
  remaining binding at 1 µM: 99%
[2]
  IC50: ~1000 nM
α2B receptor
  IC50: 1180 nM
STK33
  remaining binding at 0.1 µM: 88%
